Where “and” joins values, the source holds several entries; their conditions need not be identical. Equal values may be shown once.
What follows are compounds tested on NCI-H358 (K-Ras G12C) (assay: CellTiter-Glo cell viability assay, NCI-H358). Settings: Homo sapiens, NCI-H358, Table 5; read-out: H358 Cell Viability assay data (K-Ras G12C, IC50).
Format: cell-based, human
How it was run: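 Compounds dispensed directly onto plated NCI-H358 cells; plates equilibrated to room temperature on day 5 before luminescence read-out. Signal normalized to mean DMSO control (%) and fitted by four-parameter logistic.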

Row | IC50 [µM] | Structure (SMILES)
1 | 0.1 to 1 | C=CC(=O)N1CC[C@H](C(=O)N(C)[C@H](C(=O)N[C@H]2Cc3cccc(c3)-c3ccc4c(c3)c(c(-c3cccnc3[C@H](C)OC)n4CC)CC(C)(C)COC(=O)[C@@H]3CCCN(N3)C2=O)C(C)C)C1 [Compound A114]

Same assay, conditions: Homo sapiens, NCI-H358, read-out: H358 Cell Viability assay data (K-Ras G12C, IC50, uM), Table 5

Row | Structure (SMILES) | IC50 [µM]
2 | C=CC(=O)N1CC[C@H](C(=O)N(C)[C@H](C(=O)N[C@H]2Cc3cc(O)cc(c3)-c3ccc4c(c3)c(c(-c3cnccc3[C@H](C)OC)n4CC)CC(C)(C)COC(=O)[C@@H]3CCCN(N3)C2=O)C(C)C)C1 [Compound A112] | < 0.01
3 | CCn1c(-c2cnccc2COC)c2c3cc(ccc31)-c1ccnc(c1)C[C@H](NC(=O)[C@H](C(C)C)N(C)C(=O)[C@H]1CCN(C(=O)C#CCN(C)C)C1)C(=O)N1CCC[C@H](N1)C(=O)OCC(C)(C)C2 [Compound A130] | 0.01 to 0.1

Same assay, conditions: Table 5; read-out: H358 Cell Viability assay data (K-Ras G12C, IC50)

Row | IC50 | Structure (SMILES)
4 | < 0.01 µM | CCn1c(-c2cnccc2COC)c2c3cc(ccc31)-c1cc(O)cc(c1)C[C@H](NC(=O)[C@H](C(C)C)N(C)C(=O)[C@H]1CCN(C(=O)C#CCN(C)C)C1)C(=O)N1CCC[C@H](N1)C(=O)OCC(C)(C)C2 [Compound A88]
5 | 0.01 to 0.1 µM | C=CC(=O)N1CC[C@H](C(=O)N(C)[C@H](C(=O)N[C@H]2Cc3cc(O)cc(c3)-c3ccc4c(c3)c(c(-c3ccc(N5CCN(C)CC5)nc3)n4CC)CC(C)(C)COC(=O)[C@@H]3CCCN(N3)C2=O)C(C)C)C1 [Compound A89, (2S)-N-[(8S,14S)-22-ethyl-4-hydroxy-18,18-dimethyl-21-[6-(4-methylpiperazin-1-yl)pyridin-3-yl]-9,15-dioxo-16-oxa-10,22,28-triazapentacyclo[18.5.2.1^2,^6.1^10,^14.0^23,^27]nonacosa-1(26),2,4,6(29),20,23(27),24-heptaen-8-yl]-3-methyl-2-{N-methyl-1-[(3S)-1-(prop-2-enoyl)pyrrolidin-3-yl]formamido}butanamide]
6 | > 1 µM | CCn1c(-c2ccccc2CN(C)C)c2c3cc(ccc31)-c1cc(O)cc(c1)C[C@H](NC(=O)[C@H](C(C)C)N(C)C(=O)c1nc(NC(=O)/C=C/CN(C)C)cs1)C(=O)N1CCC[C@H](N1)C(=O)OCC(C)(C)C2 [Compound A90]
7 | < 0.01 µM | C=CC(=O)N1CC[C@H](C(=O)N(C)[C@H](C(=O)N[C@H]2Cc3cc(O)cc(c3)-c3ccc4c(c3)c(c(-c3cnccc3COC)n4CC)CC(C)(C)COC(=O)[C@@H]3CCCN(N3)C2=O)C(C)C)C1 [Compound A91]
8 | 0.1 to 1 µM | C=CC(=O)N1CC[C@H](C(=O)N(C)[C@H](C(=O)N[C@H]2Cc3cc(O)cc(c3)-c3ccc4c(c3)c(c(-c3cccnc3CN(C)C)n4CC)CC(C)(C)COC(=O)[C@@H]3CCCN(N3)C2=O)C(C)C)C1 [Compound A92]
9 | 0.01 to 0.1 µM | C=CC(=O)N1CC[C@H](C(=O)N(C)[C@H](C(=O)N[C@H]2Cc3cc(O)cc(c3)-c3ccc4c(c3)c(c(-c3cccnc3COC)n4CC#N)CC(C)(C)COC(=O)[C@@H]3CCCN(N3)C2=O)C(C)C)C1 [Compound A93]
10 | 0.01 to 0.1 µM | C=CC(=O)N1CC[C@H](C(=O)N(C)[C@H](C(=O)N[C@H]2Cc3nc(cs3)-c3ccc4c(c3)c(c(-c3cccnc3COC)n4CC)CC(C)(C)COC(=O)[C@@H]3CCCN(N3)C2=O)C(C)C)C1 [Compound A94]
11 | 0.01 to 0.1 µM | CCn1c(-c2cccnc2COC)c2c3cc(ccc31)-c1cc(O)cc(c1)C[C@H](NC(=O)[C@H](C(C)C)N(C)C(=O)[C@H]1CCN(C(=O)C#CCN3CCOCC3)C1)C(=O)N1CCC[C@H](N1)C(=O)OCC(C)(C)C2 [Compound A95, (2S)-N-[(8S,14S)-22-ethyl-4-hydroxy-21-[2-(methoxymethyl)pyridin-3-yl]-18,18-dimethyl-9,15-dioxo-16-oxa-10,22,28-triazapentacyclo[18.5.2.1^2,^6.1^10,^14.0^23,^27]nonacosa-1(26),2,4,6(29),20,23(27),24-heptaen-8-yl]-3-methyl-2-{N-methyl-1-[(3S)-1-[4-(morpholin-4-yl)but-2-ynoyl]pyrrolidin-3-yl]formamido}butanamide]
12 | < 0.01 µM | CCn1c(-c2cccnc2COC)c2c3cc(ccc31)-c1cc(O)cc(c1)C[C@H](NC(=O)[C@H](C(C)C)N(C)C(=O)[C@H]1CCN(C(=O)C#CCN(C)C)C1)C(=O)N1CCC[C@H](N1)C(=O)OCC(C)(C)C2 [Compound A96]
13 | 0.01 to 0.1 µM | CCn1c(-c2cccnc2COC)c2c3cc(ccc31)-c1cc(O)cc(c1)C[C@H](NC(=O)[C@H](C(C)C)N(C)C(=O)C1CN(C(=O)C#CCN(C)C)C1)C(=O)N1CCC[C@H](N1)C(=O)OCC(C)(C)C2 [Compound A97]
14 | 0.01 to 0.1 µM | C=CC(=O)N1CC[C@H](C(=O)N(C)[C@H](C(=O)N[C@H]2Cc3cc(O)cc(c3)-c3ccc4c(c3)c(c(-c3ccc(C5CCN(C)CC5)nc3)n4CC)CC(C)(C)COC(=O)[C@@H]3CCCN(N3)C2=O)C(C)C)C1 [Compound A98]
15 | 0.01 to 0.1 µM | C=CC(=O)N1CC[C@H](C(=O)N(C)[C@H](C(=O)N[C@H]2Cc3cc(O)cc(c3)-c3ccc4c(c3)c(c(-c3cnn(C)c3)n4CC)CC(C)(C)COC(=O)[C@@H]3CCCN(N3)C2=O)C(C)C)C1 [Compound A99]
16 | 0.1 to 1 µM | C=CC(=O)N1CC[C@H](C(=O)N(C)[C@H](C(=O)N[C@H]2Cc3cc(O)cc(c3)-c3ccc4c(c3)c(c(-c3cn(C)cn3)n4CC)CC(C)(C)COC(=O)[C@@H]3CCCN(N3)C2=O)C(C)C)C1 [Compound A113]

Second part, the compound before the results:

Row | Structure (SMILES) | IC50
17 | CCn1c(-c2cccnc2COC)c2c3cc(ccc31)-c1cc(O)cc(c1)C[C@H](NC(=O)[C@H](C(C)C)N(C)C(=O)C1CN(C(=O)/C=C/CN(C)C)C1)C(=O)N1CCC[C@H](N1)C(=O)OCC(C)(C)C2 [Compound A71, (2S)-2-(1-{1-[(2E)-4-(dimethylamino)but-2-enoyl]azetidin-3-yl}-N-methylformamido)-N-[(8S,14S)-22-ethyl-4-hydroxy-21-[2-(methoxymethyl)pyridin-3-yl]-18,18-dimethyl-9,15-dioxo-16-oxa-10,22,28-triazapentacyclo[18.5.2.1^2,6.1^10,^14.0^23,^27]nonacosa-1(26),2,4,6(29),20,23(27),24-heptaen-8-yl]-3-methylbutanamide] | 0.1 to 1 µM
18 | CCn1c(-c2cccnc2COC)c2c3cc(ccc31)-c1cc(O)cc(c1)C[C@H](NC(=O)[C@H](C(C)C)N(C)C(=O)[C@H]1CCN(C(=O)/C=C/CN3CCN(C)CC3)C1)C(=O)N1CCC[C@H](N1)C(=O)OCC(C)(C)C2 [Compound A72] | > 1 µM
19 | C=CC(=O)N1CC[C@H](C(=O)N(C)[C@H](C(=O)N[C@H]2Cc3cc(O)cc(c3)-c3ccc4c(c3)c(c(-c3cncc(CN(C)C)c3)n4CC)CC(C)(C)COC(=O)[C@@H]3CCCN(N3)C2=O)C(C)C)C1 [Compound A73] | 0.01 to 0.1 µM
20 | C=CC(=O)N1CC[C@H](C(=O)N(C)[C@H](C(=O)N[C@H]2Cc3cc(O)cc(c3)-c3ccc4c(c3)c(c(-c3cccnc3)n4C(C)(C)C#N)CC(C)(C)COC(=O)[C@@H]3CCCN(N3)C2=O)C(C)C)C1 [Compound A74] | 0.01 to 0.1 µM
21 | C=CC(=O)N1CC[C@H](C(=O)N(C)[C@H](C(=O)N[C@H]2Cc3cc(O)cc(c3)-c3ccc4c(c3)c(c(-c3cccnc3[C@H](C)OC)n4CC)CC(C)(C)COC(=O)[C@@H]3CCCN(N3)C2=O)C(C)C)C1 [Compound A75, (2S)-N-[(8S,14S,20M)-22-ethyl-4-hydroxy-21-{2-[(1S)-1-methoxyethyl]pyridin-3-yl}-18,18-dimethyl-9,15-dioxo-16-oxa-10,22,28-triazapentacyclo[18.5.2.1^2,^6.1^10,^14.0^23,^27]nonacosa-1(26),2,4,6(29),20,23(27),24-heptaen-8-yl]-3-methyl-2-{N-methyl-1-[(3S)-1-(prop-2-enoyl)pyrrolidin-3-yl]formamido}butanamide] | < 0.01 µM and 0.01 to 0.1 µM
22 | C=CC(=O)N1CC[C@H](C(=O)N(C)[C@H](C(=O)N[C@H]2Cc3cc(O)cc(c3)-c3ccc4c(c3)c(c(-c3cnccc3[C@H](C)OC)n4CC)CC(C)(C)COC(=O)[C@@H]3CCCN(N3)C2=O)C(C)C)C1 [Compound A76] | < 0.01 µM
23 | C=CC(=O)N1CC[C@H](C(=O)N(C)[C@H](C(=O)N[C@H]2Cc3cc(O)cc(c3)-c3ccc4c(c3)c(c(-c3cnccc3C)n4CC)CC(C)(C)COC(=O)[C@@H]3CCCN(N3)C2=O)C(C)C)C1 [Compound A77] | 0.01 to 0.1 µM
24 | CCn1c(-c2ccccc2COC)c2c3cc(ccc31)-c1cc(O)cc(c1)C[C@H](NC(=O)[C@H](C(C)C)N(C)C(=O)[C@H]1CCN(C(=O)/C=C/CN(C)C)C1)C(=O)N1CCC[C@H](N1)C(=O)OCC(C)(C)C2 [Compound A79] | 0.01 to 0.1 µM
25 | C=CC(=O)N1CC[C@H](C(=O)N(C)[C@H](C(=O)N[C@H]2Cc3cc(O)cc(c3)-c3ccc4c(c3)c(c(-c3c(CCOC)cccc3OC)n4CC)CC(C)(C)COC(=O)[C@@H]3CCCN(N3)C2=O)C(C)C)C1 [Compound A80] | 0.1 to 1 µM
26 | C=CC(=O)N1CC[C@H](C(=O)N(C)[C@H](C(=O)N[C@H]2Cc3cc(O)cc(c3)-c3ccc4c(c3)c(c(-c3cc(F)cnc3COC)n4CC)CC(C)(C)COC(=O)[C@@H]3CCCN(N3)C2=O)C(C)C)C1 [Compound A82] | 0.01 to 0.1 µM
27 | C=CC(=O)N1CC[C@H](C(=O)N(C)[C@H](C(=O)N[C@H]2Cc3cc(O)cc(c3)-c3ccc4c(c3)c(c(-c3cncc(COC)c3)n4CC)CC(C)(C)COC(=O)[C@@H]3CCCN(N3)C2=O)C(C)C)C1 [Compound A83] | 0.01 to 0.1 µM
28 | C=CC(=O)N1CC[C@H](C(=O)N(C)[C@H](C(=O)N[C@H]2Cc3cc(O)cc(c3)-c3ccc4c(c3)c(c(-c3ncccc3COC)n4CC)CC(C)(C)COC(=O)[C@@H]3CCCN(N3)C2=O)C(C)C)C1 [Compound A84] | 0.1 to 1 µM
29 | C=CC(=O)N1CC[C@H](C(=O)N(C)[C@H](C(=O)N[C@H]2Cc3cc(O)cc(c3)-c3ccc4c(c3)c(c(-c3nccnc3COC)n4CC)CC(C)(C)COC(=O)[C@@H]3CCCN(N3)C2=O)C(C)C)C1 [Compound A85] | 0.1 to 1 µM
30 | C=CC(=O)N1CC[C@H](C(=O)N(C)[C@H](C(=O)N[C@H]2Cc3cc(O)cc(c3)-c3ccc4c(c3)c(c(-c3ccncc3)n4C(C)(C)C#N)CC(C)(C)COC(=O)[C@@H]3CCCN(N3)C2=O)C(C)C)C1 [Compound A86] | 0.01 to 0.1 µM
31 | CCn1c(-c2cnccc2COC)c2c3cc(ccc31)-c1cc(O)cc(c1)C[C@H](NC(=O)[C@H](C(C)C)N(C)C(=O)[C@H]1CCN(C(=O)/C=C/CN(C)C)C1)C(=O)N1CCC[C@H](N1)C(=O)OCC(C)(C)C2 [Compound A87] | 0.01 to 0.1 µM

Source: patent publication EP4806900A2, “RAS INHIBITORS” (Revolution Medicines, Inc., priority 2019, dated 2021)
